Assay results taken from ChEMBL document CHEMBL1156786, “Conformationally constrained mimetics of laminin peptide YIGSR as precursors for antimetastatic disintegrins” (J Med Chem, 2009).
Where a SMILES comes first, the peptide text is derived from it.

Legend:
Format in all cases: cell-based
[1] = target: Small ribosomal subunit protein uS2 (Mus musculus) (UniProt P14206); assay: Binding affinity to LAMR1 in mouse B16-F10 cells assessed as maximal cell attachment to compound coated plates after 3 hrs by hemocytometer
[2] = target: Small ribosomal subunit protein uS2 (Homo sapiens) (UniProt P08865); assay: Binding affinity to LAMR1 in human HeLa cells assessed as maximal cell attachment to compound coated plates after 3 hrs by hemocytometer
[3] = target: Small ribosomal subunit protein uS2 (Homo sapiens) (UniProt P08865); assay: Binding affinity to LAMR1 in human HT1080 cells assessed as maximal cell attachment to compound coated plates after 3 hrs by hemocytometer; conditions: HT-1080
[4] = target: Small ribosomal subunit protein uS2 (Homo sapiens) (UniProt P08865); assay: Binding affinity to LAMR1 in human HT1080 cells assessed as maximal cell attachment to compound coated plates at 20 ug/well after 3 hrs by hemocytometer; conditions: HT-1080
[5] = target: Small ribosomal subunit protein uS2 (Homo sapiens) (UniProt P08865); assay: Binding affinity to LAMR1 in human HT1080 cells assessed as maximal cell attachment to compound coated plates at 0.2 ug/well after 3 hrs by hemocytometer; conditions: HT-1080

Structure (SMILES)	Activity [1] [%]	Activity [2] [%]	Activity [3] [%]	Activity [4] [%]	Activity [5] [%]
CC[C@H](C)[C@@H]1NC(=O)[C@H](Cc2ccc(O)cc2)NC(=O)CNC(=O)[C@H](CCCNC(=N)N)NC(=O)[C@H](CO)NC(=O)[C@@H](CO)NC1=O	68	45	72	–	–
CC[C@H](C)[C@@H]1NC(=O)[C@H](Cc2ccc(O)cc2)NC(=O)CNC(=O)[C@@H]2CCCN2C(=O)[C@H](CC(=O)O)NC(=O)[C@H](CCCNC(=N)N)NC(=O)[C@H](CO)NC(=O)CNC1=O (cyclo(DPGYIGSR))	62	40	67	–	–
CC[C@H](C)[C@@H]1NC(=O)[C@H](Cc2ccc(O)cc2)NC(=O)CNC(=O)[C@@H]2CCCN2C(=O)[C@H](CC(=O)O)NC(=O)[C@H](CCCNC(=N)N)NC(=O)[C@H](CO)NC(=O)[C@@H](CO)NC1=O	–	–	75	–	–
CC[C@H](C)[C@@H]1NC(=O)[C@H](Cc2ccc(O)cc2)NC(=O)[C@H](CC(N)=O)NC(=O)[C@H](CCCNC(=N)N)NC(=O)[C@H](CO)NC(=O)[C@@H](CO)NC(=O)[C@H]([C@@H](C)CC)NC(=O)[C@H](Cc2ccc(O)cc2)NC(=O)[C@H](CC(N)=O)NC(=O)[C@H](CCCNC(=N)N)NC(=O)[C@H](CO)NC(=O)[C@@H](CO)NC1=O	–	–	48	–	–
CC[C@H](C)[C@@H]1NC(=O)[C@H](Cc2ccc(O)cc2)NC(=O)[C@H](CC(N)=O)NC(=O)[C@H](CCCNC(=N)N)NC(=O)[C@H](CO)NC(=O)[C@@H]2CCCN2C1=O (cyclo(IPSRNY))	–	32	53	–	–
CC[C@H](C)[C@H](NC(=O)[C@@H](N)Cc1ccc(O)cc1)C(=O)NCC(=O)N[C@@H](CO)C(=O)N[C@@H](CCCNC(=N)N)C(=O)N[C@H](C)C(=O)N[C@H](CCSC)C(=O)O	–	31	53	–	–
CC[C@H](C)[C@@H]1NC(=O)[C@H](Cc2ccc(O)cc2)NC(=O)[C@H](CC(N)=O)NC(=O)[C@H](CCCNC(=N)N)NC(=O)[C@H](CO)NC(=O)[C@@H](CCC(=O)O)NC1=O	58	43	76	–	–
CC[C@H](C)[C@@H]1NC(=O)[C@H](Cc2ccc(O)cc2)NC(=O)CNC(=O)[C@@H]2CCCN2C(=O)[C@H](CC(=O)O)NC(=O)[C@H](CCCNC(=N)N)NC(=O)[C@H](CO)NC(=O)[C@@H](CCC(=O)O)NC1=O	–	–	62	–	–
CC[C@H](C)[C@@H]1NC(=O)[C@H](Cc2ccc(O)cc2)NC(=O)[C@H]2CCCN2C(=O)[C@H](CCCNC(=N)N)NC(=O)[C@H](CO)NC(=O)[C@@H](CO)NC1=O	–	–	76	–	–
CC[C@H](C)[C@@H]1NC(=O)[C@H](Cc2ccc(O)cc2)NC(=O)[C@H](CC(N)=O)NC(=O)[C@H](CCCNC(=N)N)NC(=O)[C@H](CO)NC(=O)CNC1=O (cyclo(GSRNYI))	–	32	56	–	–
CC[C@H](C)[C@@H]1NC(=O)[C@H](Cc2ccc(O)cc2)NC(=O)[C@H](CC(N)=O)NC(=O)[C@H](CCCNC(=N)N)NC(=O)[C@H](CO)NC(=O)[C@@H](CO)NC1=O	45	46	81	40	20
CC[C@H](C)[C@@H]1NC(=O)[C@H](Cc2ccc(O)cc2)NC(=O)CNC(=O)[C@@H]2CCCN2C(=O)[C@H](CC(=O)O)NC(=O)[C@H](CCCNC(=N)N)NC(=O)[C@H](CO)NC(=O)[C@@H](CCCCN)NC1=O	–	–	45	–	–
CC[C@H](C)[C@@H]1NC(=O)[C@H](Cc2ccc(O)cc2)NC(=O)[C@H](CC(N)=O)NC(=O)[C@H](CCCNC(=N)N)NC(=O)[C@H](CO)NC(=O)[C@@H](CCCCN)NC1=O	–	29	64	–	–
CC[C@H](C)[C@@H]1NC(=O)[C@H](Cc2ccc(O)cc2)NC(=O)[C@H](CC(N)=O)NC(=O)[C@H](CCCNC(=N)N)NC(=O)[C@H](CO)NC(=O)[C@@H]2CCCN2C(=O)[C@H]([C@@H](C)CC)NC(=O)[C@H](Cc2ccc(O)cc2)NC(=O)[C@H](CC(N)=O)NC(=O)[C@H](CCCNC(=N)N)NC(=O)[C@H](CO)NC(=O)[C@@H]2CCCN2C1=O (cyclo(IPSRNYIPSRNY))	–	–	57	–	–
